Results as given in US8575176B2, “Heteroaromatic pyrazinoylguanidine sodium channel blockers” (Parion Sciences, Inc., priority 2008, dated 2013).
Where a name gives a salt, the structure may show the parent alone.

Key:
[1] = target: T1, epithelial sodium channels (ENaC) (Homo sapiens, UniProt P37088+P51168+P51170); test: In vitro sodium channel blocking activity (short circuit current, Ussing chambers), human airway cells; format: cell-based; settings: freshly excised cell from human airways
T1 construct: endogenous in cells; host or cells: primary human airway epithelial cells cultured at air-liquid interface
T1 sequence (P37088 1-669): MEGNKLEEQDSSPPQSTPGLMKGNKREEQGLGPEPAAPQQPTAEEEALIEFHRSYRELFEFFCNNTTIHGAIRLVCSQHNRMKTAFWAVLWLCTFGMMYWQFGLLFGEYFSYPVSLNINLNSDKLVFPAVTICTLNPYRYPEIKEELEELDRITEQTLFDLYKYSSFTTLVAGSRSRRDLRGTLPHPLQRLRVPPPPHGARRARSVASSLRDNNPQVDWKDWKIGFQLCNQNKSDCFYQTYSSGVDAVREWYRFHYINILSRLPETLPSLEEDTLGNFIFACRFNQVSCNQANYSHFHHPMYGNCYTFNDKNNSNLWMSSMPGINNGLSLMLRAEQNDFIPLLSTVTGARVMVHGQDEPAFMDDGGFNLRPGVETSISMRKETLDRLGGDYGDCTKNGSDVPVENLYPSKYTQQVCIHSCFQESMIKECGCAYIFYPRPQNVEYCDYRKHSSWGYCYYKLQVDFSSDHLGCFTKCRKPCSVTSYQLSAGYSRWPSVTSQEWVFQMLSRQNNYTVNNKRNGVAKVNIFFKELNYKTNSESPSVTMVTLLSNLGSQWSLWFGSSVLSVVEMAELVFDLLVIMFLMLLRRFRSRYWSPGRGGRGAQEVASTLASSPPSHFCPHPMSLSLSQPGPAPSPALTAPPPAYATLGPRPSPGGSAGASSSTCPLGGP
T1 sequence (P51168 1-640): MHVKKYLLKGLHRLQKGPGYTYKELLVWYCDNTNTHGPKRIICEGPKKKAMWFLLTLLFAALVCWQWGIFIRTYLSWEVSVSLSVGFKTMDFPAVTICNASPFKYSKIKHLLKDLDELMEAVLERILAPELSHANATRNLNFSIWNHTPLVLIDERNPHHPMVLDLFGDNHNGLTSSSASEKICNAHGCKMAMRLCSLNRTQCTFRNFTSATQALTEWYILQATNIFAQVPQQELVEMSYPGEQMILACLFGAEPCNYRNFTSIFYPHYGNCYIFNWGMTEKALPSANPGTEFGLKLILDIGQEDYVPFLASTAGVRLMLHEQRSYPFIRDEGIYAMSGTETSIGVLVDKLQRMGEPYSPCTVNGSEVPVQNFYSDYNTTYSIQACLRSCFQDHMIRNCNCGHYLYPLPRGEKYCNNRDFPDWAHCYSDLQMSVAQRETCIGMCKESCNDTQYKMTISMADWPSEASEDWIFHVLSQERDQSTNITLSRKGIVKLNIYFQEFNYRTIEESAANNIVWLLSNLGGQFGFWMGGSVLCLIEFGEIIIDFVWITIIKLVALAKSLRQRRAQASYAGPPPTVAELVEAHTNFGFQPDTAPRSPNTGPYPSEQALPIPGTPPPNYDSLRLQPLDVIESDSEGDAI
T1 sequence (P51170 1-649): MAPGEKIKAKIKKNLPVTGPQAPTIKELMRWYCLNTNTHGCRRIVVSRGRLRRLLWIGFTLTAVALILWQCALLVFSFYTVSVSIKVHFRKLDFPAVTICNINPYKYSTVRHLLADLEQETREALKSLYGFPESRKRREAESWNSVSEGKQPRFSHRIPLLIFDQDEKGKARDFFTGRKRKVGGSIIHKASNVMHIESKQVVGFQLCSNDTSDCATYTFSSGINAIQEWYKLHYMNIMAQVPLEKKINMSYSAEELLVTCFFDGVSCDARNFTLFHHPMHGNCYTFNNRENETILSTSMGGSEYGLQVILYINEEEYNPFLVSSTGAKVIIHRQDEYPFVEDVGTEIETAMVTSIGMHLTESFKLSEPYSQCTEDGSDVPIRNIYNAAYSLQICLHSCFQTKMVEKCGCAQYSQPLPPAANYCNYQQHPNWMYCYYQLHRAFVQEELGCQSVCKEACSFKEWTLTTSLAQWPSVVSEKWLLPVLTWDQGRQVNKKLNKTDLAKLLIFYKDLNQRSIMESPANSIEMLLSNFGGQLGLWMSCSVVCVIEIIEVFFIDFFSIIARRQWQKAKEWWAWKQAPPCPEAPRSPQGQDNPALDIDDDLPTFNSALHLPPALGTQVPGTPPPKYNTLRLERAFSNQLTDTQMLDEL
Procedure: In Vitro Measure of Sodium Channel Blocking Activity and Reversibility
(§1) One assay used to assess mechanism of action and/or potency of the compounds of the present invention involves the determination of lumenal drug inhibition of airway epithelial sodium currents measured under short circuit current (ISC) using airway epithelial monolayers mounted in Ussing chambers. Cells obtained from freshly excised human, dog, sheep or rodent airways are seeded onto porous 0.4 micron Snapwell™ Inserts (CoStar), cultured at air-liquid interface (ALI) conditions in hormonally defined media, and assayed for sodium transport activity (ISC) while bathed in Krebs Bicarbonate Ringer (KBR) in Using chambers. All test drug additions are to the lumenal bath with half-log dose addition protocols (from 1×10^−11 M to 3×10^−5 M), and the cumulative change in ISC (inhibition) recorded. All drugs are prepared in dimethyl sulfoxide as stock solutions at a concentration of 1×10^−2 M and stored at −20° C. […] After the maximal concentration ([…]) is administered, the lumenal bath is exchanged three times with fresh drug-free KBR solution, and the resultant ISC measured after each wash for approximately 5 minutes in duration. Reversibility is defined as the percent return to the baseline value for sodium current after the third wash. All data from the voltage clamps are collected via a computer interface and analyzed off-line.
(§2) Dose-effect relationships for all compounds are considered and analyzed by the Prism 3.0 program.

[2] = target: T2, epithelial sodium channels (ENaC) (Canis lupus familiaris, UniProt A0A8I3MKE6+A0A8I3Q679+Q95165); test: In vitro sodium channel blocking activity (short circuit current, Ussing chambers), dog airway cells; format: cell-based; settings: freshly excised cell from dog airways
T2 sequence (A0A8I3Q679 1-649): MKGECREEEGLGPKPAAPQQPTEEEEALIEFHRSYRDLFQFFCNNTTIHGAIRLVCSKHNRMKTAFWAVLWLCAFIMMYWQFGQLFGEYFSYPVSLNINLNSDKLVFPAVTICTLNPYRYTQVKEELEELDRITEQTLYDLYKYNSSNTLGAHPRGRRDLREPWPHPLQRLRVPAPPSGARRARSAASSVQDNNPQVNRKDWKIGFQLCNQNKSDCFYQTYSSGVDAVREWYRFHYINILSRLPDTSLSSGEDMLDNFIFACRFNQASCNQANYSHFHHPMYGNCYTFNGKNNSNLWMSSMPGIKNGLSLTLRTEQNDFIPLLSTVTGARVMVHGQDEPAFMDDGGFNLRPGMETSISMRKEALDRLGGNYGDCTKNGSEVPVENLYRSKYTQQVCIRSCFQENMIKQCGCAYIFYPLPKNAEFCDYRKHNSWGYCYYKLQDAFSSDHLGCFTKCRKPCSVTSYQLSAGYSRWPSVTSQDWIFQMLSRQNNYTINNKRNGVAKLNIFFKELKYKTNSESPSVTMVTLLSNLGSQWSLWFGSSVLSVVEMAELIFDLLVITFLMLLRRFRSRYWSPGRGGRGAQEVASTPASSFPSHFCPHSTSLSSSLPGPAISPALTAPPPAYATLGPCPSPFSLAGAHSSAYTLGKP
T2 sequence (Q95165 1-641): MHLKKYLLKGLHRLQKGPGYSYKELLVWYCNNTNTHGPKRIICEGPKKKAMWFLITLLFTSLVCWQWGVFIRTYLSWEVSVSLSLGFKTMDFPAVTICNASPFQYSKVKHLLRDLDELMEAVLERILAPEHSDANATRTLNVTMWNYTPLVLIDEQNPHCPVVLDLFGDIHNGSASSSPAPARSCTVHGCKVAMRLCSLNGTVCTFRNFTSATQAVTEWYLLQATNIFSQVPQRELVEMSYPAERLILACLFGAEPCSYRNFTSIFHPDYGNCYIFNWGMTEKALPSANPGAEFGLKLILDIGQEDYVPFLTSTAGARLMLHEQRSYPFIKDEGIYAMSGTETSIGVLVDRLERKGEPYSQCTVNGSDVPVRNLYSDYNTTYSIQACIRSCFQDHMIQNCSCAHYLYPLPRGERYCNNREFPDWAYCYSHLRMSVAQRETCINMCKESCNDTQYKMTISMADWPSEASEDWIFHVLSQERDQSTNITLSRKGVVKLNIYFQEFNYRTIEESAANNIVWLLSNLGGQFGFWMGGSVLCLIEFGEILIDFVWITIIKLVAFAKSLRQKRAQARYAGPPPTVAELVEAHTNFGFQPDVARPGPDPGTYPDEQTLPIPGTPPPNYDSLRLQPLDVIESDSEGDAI
T2 sequence (A0A8I3MKE6 1-646): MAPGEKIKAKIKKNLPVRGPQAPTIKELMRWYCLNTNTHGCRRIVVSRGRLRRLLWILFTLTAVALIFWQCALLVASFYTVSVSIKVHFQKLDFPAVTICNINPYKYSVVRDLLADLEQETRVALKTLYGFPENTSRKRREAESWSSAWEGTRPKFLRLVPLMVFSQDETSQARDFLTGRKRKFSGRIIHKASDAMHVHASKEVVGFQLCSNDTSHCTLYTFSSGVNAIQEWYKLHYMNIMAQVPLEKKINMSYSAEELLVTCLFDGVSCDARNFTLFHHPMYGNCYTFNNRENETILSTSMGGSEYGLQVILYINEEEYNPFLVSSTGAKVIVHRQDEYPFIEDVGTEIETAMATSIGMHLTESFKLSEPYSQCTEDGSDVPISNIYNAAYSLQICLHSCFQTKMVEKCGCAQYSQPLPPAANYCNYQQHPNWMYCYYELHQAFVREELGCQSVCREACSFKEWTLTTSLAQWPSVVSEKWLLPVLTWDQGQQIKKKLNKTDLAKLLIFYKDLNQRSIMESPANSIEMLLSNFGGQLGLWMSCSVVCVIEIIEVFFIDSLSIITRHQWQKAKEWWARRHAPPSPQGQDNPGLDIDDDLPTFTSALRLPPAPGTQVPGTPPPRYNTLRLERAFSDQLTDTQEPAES
Procedure: as §1, with “Reversibility is defined as the percent return to the baseline value for sodium current after the third wash.” left out
as §2

Row | Potency of Sodium Channel Blockade Relative to Amiloride [1] | melting point [°C] | SMILES | IC50 [2] [nM]
1 | 164 |  | CS(=O)(=O)O.N=C(NCCCCc1ccc(OCCCN)c2ccccc12)NC(=O)c1nc(Cl)c(N)nc1N [Compound 72, 3,5-Diamino-N—(N-{4-[4-(3-aminopropoxy)naphthalen-1-yl]butyl}carbamimidoyl)-6-chloropyrazine-2-carboxamide Methanesulfonic Acid Salt] | 
2 | 30 | 115 to 118 | C[C@H](O)C(=O)O.N=C(NCCCCc1ccc(OCC(O)CO)c2ccccc12)NC(=O)c1cc(Cl)c(N)cc1N [Compound 26, 2,4-Diamino-5-chloro-N—(N-{4-[4-(2,3-dihydroxypropoxy)naphthalen-1-yl]butyl}carbamimidoyl)benzamide L-(+)-Lactic Acid Salt] | 
3 | 63 |  | N=C(NCCCCc1ccc2cc(OCC(O)CO)ccc2c1)NC(=O)c1nc(Cl)c(N)nc1N (centres unmarked) [Compound 34, 3,5-Diamino-6-chloro-N—(N-{4-[6-(2,3-dihydropropoxy)naphthalen-2-yl]butyl}carbamimidoyl)pyrazine-2-carboxamide Methanesulfonic Acid Salt] | 
4 |  |  | CC1OC[C@@H](O)[C@H]([C@H](O)[C@@H](O)CNCCCOc2ccc3cc(CCCCN)ccc3c2)O1 (some centres unmarked) [Compound 105] | 23.5
